Read-outs that look alike come from different tables or passages of the source. Where a SMILES comes first, the peptide text is derived from it. [ ]: non-standard residue; d: D form. The star is where a group is joined. Dolaproine = CO[C@@H]([C@@H]1CCCN1)[C@@H](C)C(=O)O; Dil = CC[C@H](C)[C@H](NC)[C@@H](CC(=O)O)OC; X1 = C[C@@H](N*)[C@@H](O)c1ccccc1; NMeV = CN[C@H](C(=O)O)C(C)C
Columns and labels:
[1] = system: 8392B cell line; test: Two hour toxicity: inhibition of DNA synthesis activity, nontarget cell line; assay type: cell-based
[2] = system: MV522 cell line; test: cells; assay type: cell-based
[3] = system: 8392B cell line; test: cells; assay type: cell-based; details: read-out: Mean IC50 value (nM) ± SD, N=3 unless otherwise indicated, 8392B Nontarget Cell Line, 48 hr exposure, 8392B nontarget cell line, mean ± SD, N=3 unless otherwise indicated
[4] = system: NCI 60 cell line panel; test: NCI DTP 60 cell line screen assay; details: for Cytotoxicity: ability to actually kill tumor cells versus only inhibiting growth
Description: An ADC is engulfed by a tumor cell, transported to the endosomes (pH < 6.0) and then into the lysozomes (pH < 4). […] 4) Cancer cells can become resistant to various toxins and drugs through the development of what is termed multi-drug resistance. This process is known to occur through several different mechanisms.

[5] = read-out: Mean IC50 value (nM) ± SD, N=3 unless otherwise indicated, 8392B Nontarget Cell Line, 2 hr exposure, 8392B nontarget cell line, 2 hr exposure, mean ± SD, N=3 unless otherwise indicated
[6] = read-out: Mean IC50 value (nM) ± SD, N=3 unless otherwise indicated, MV522 Target Cell Line, 2 hr exposure, MV522 target cell line, 2 hr exposure, mean ± SD, N=3 unless otherwise indicated

| SMILES | IC50 [1, 5] [nM] | IC50 [3] [nM] | further results |
| --- | --- | --- | --- |
| CC1=C(CCCNC(=O)N2CCC(N3CCCCC3)CC2)C2=C(C)C3(CC3)[C@@](C)(O)C(=O)C2=C1 [compound 260] | > 64000 | – | – |
| CC1=C(CO)C2=C(C)C3(CC3)[C@@](C)(O)C(=O)C2=C1 [analog 002, (6'R)-6'-hydroxy-3'-(hydroxymethyl)-2',4',6'-trimethylspiro[cyclopropane-1,5'-inden]-7'(6'H)-one] | – | – | IC50 ([2]; MV522, 2 h, read-out: IC50 MV522): 110 nM; IC50 ([1]; 2 hour exposure, nontarget cell line, read-out: IC50 8392B): > 26000 nM |
| CC1=C(CNC(=O)C2CCCN2)C2=C(C)C3(CC3)[C@@](C)(O)C(=O)C2=C1 (stereo partly shown) [compound 275] | > 62000 | > 6200 | – |
| CC1=C2C(=C[C@@](C)(C=O)[C@@H]2O)C(=O)[C@](C)(O)C12CC2 [analog 383, (2'R,3'R,6'R)-3',6'-dihydroxy-2',4',6'-trimethyl-7'-oxo-2',3',6',7'-tetrahydrospiro[cyclopropane-1,5'-indene]-2'-carbaldehyde] | – | – | Cytotoxicity [4]: cytotoxic |
| CC[C@H](C)[C@@H]([C@@H](CC(=O)N1CCC[C@H]1[C@H](OC)[C@@H](C)C(=O)N[C@H](C)[C@@H](O)c1ccccc1)OC)N(C)C(=O)[C@@H](NC(=O)[C@@H](NC)C(C)C)C(C)C [MMAE, N-methylvaline-valine-dolaisoleuine-dolaproine-norephedrine, reference compound] (H-[NMeV]V[Dil][Dolaproine]-X1) | – | – | MDR Activity [4]: No; MDR Activity ([4]; listed as MMA): not MDR active; Cytotoxicity [4]: No; Cytotoxicity ([4]; listed as MMA): not cytotoxic |
| CC(=O)OC[C@]1(C)C=C2C(=O)[C@](C)(O)C3(CC3)C(C)=C2[C@H]1OC(=O)N(C)CCN(C)C(=O)OC(C)(C)C [analog 334, ((2'S,3'R,6'R)-3'-(((2-((tert-butoxycarbonyl)(methyl)amino)ethyl)(methyl)carbamoyl)oxy)-6'-hydroxy-2',4',6'-trimethyl-7'-oxo-2',3',6',7'-tetrahydrospiro[cyclopropane-1,5' - inden]-2' - yl)methylacetate] | – | – | Cytotoxicity [4]: cytotoxic |
| CC1=C(CCCOC(=O)CNC(=O)OC(C)(C)C)C2=C(C)C3(CC3)[C@@](C)(O)C(=O)C2=C1 [compound 298] | – | – | IC50 [2, 6]: > 7000 nM |
| CC1=C(CSc2nc(O)c3nccnc3n2)C2=C(C)C3(CC3)[C@@](C)(O)C(=O)C2=C1 [compound 153] | > 90000 | – | – |
| CC1=C(Cn2cc(F)c(=O)[nH]c2=O)C2=C(C)C3(CC3)[C@@](C)(O)C(=O)C2=C1 [compound 286] | – | > 8800 | – |
| CC1=C2C(=C[C@@](C)(C=O)[C@@H]2O)C(=O)[C@](C)(O)C12CC2 [compound 383] | – | – | MDR Activity [4]: Yes; Cytotoxicity [4]: Yes |
| CC1=C(CN=[N+]=[N-])C2=C(C)C3(CC3)[C@@](C)(O)C(=O)C2=C1 [compound 193] | – | > 11000 | – |
| CC1=C(COC(=O)CCCCCN2C(=O)C=CC2=O)C2=C(C)C3(CC3)[C@@](C)(O)C(=O)C2=C1 [compound 217] | – | > 7000 | – |
| CC1=C(CSc2nc3ccccc3s2)C2=C(C)C3(CC3)[C@@](C)(O)C(=O)C2=C1 [compound 147] | > 76000 | – | IC50 [2, 6]: > 76000 nM |
| CC1=CC2=C(C)C3(CC3)[C@@](C)(O)/C(=N/O)C2=C1 [analog 224, (R,E)-6'-hydroxy-2',4',6'-trimethylspiro[cyclopropane-1,5 '-inden]-7'(6'H)-one oxime] | – | – | toxicity ([2]; target and nontarget cell line, in words): minimal toxicity |
| CC1=C2C(=C[C@@](C)(COS(C)(=O)=O)[C@@H]2O)C(=O)[C@](C)(O)C12CC2 [compound 362] | – | – | MDR Activity [4]: Yes; Cytotoxicity [4]: Yes |
| CC1=C(COc2ccc([N+](=O)[O-])cc2)C2=C(C)C3(CC3)[C@@](C)(O)C(=O)C2=C1 [compound 198] | > 8200 | > 82000 | – |
| CC1=C(Cn2c(=O)cc[nH]c2=O)C2=C(C)C3(CC3)[C@@](C)(O)C(=O)C2=C1 [compound 284] | – | > 8800 | – |
| CC1=C(CNS(N)(=O)=O)C2=CC3(CC3)C(C)(O)C(=O)C2=C1 (stereo not shown) [compound 283] | – | > 9300 | – |
| CC(=O)O[C@@H]1C2=C(C)C3(CC3)[C@@](C)(O)C(=O)C2=C[C@@]1(C)CO [compound 371] | – | – | MDR Activity [4]: Yes; Cytotoxicity [4]: Yes |
| CCCCCCCC/C=C/CCCCCCCC(=O)OCCCC1=C(C)C=C2C(=O)[C@](C)(O)C3(CC3)C(C)=C21 [compound 227] | > 57000 | – | IC50 [2, 6]: > 57000 nM |
| CC(=O)ON(C(C)=O)c1ccc(C(=O)OC[C@]2(C)C=C3C(=O)[C@](C)(O)C4(CC4)C(C)=C3C2O)cc1 (stereo partly shown) [compound 136] | > 6200 | – | – |
| CC1=C(CCCOC(=O)[C@@H]2CCCN2C(=O)[C@@H](N)CO)C2=C(C)C3(CC3)[C@@](C)(O)C(=O)C2=C1 [compound 203] | – | > 5500 | – |
| CC1=C(CNO)C2=C(C)C3(CC3)[C@@](C)(O)C(=O)C2=C1 [analog 394, (R)-6'-hydroxy-3'-((hydroxyamino)methyl)-2',4',6'-trimethylspiro[cyclopropane-1,5'-inden]-7'(6'H)-one] | – | – | Cytotoxicity [4]: cytotoxic |
| CC(=O)O[C@@H]1C2=C(C)C3(CC3)[C@@](C)(O)C(=O)C2=C[C@@]1(C)CO [analog 371, (2'S,3'R,6'R)-6'-hydroxy-2'-(hydroxymethyl)-2',4',6'-trimethyl-7'-oxo-2',3',6',7'-tetrahydrospiro[cyclopropane-1,5'-inden]-3'-yl acetate] | – | – | Cytotoxicity [4]: cytotoxic |

| SMILES | IC50 [1, 5] [nM] | IC50 [3] [nM] | further results |
| --- | --- | --- | --- |
| CC1=C(Cn2c(=O)[nH]cc(F)c2=O)C2=C(C)C3(CC3)[C@@](C)(O)C(=O)C2=C1 [compound 287] | 567000 ± 17000 | – | IC50 [2, 6]: 455000 ± 22000 nM |
| C/C(=C\c1csc(C)n1)[C@@H]1C[C@@H]2O[C@@H]2CCC[C@H](C)[C@H](O)[C@@H](C)C(=O)C(C)(C)[C@@H](O)CC(=O)O1 [Epothilone A, reference compound] | – | – | Cytotoxicity [4]: not cytotoxic and No |
| CC(=O)OC[C@]1(C)C=C2C(=O)[C@](C)(O)C3(CC3)C(C)=C2[C@H]1OC(=O)N(C)CCN(C)C(=O)OC(C)(C)C [compound 334] | – | – | MDR Activity [4]: Yes; Cytotoxicity [4]: Yes |
| CC1=C([C@@H]2CCOS(=O)(=O)N2)C2=C(C)C3(CC3)[C@@](C)(O)C(=O)C2=C1 [compound 259] | > 85000 | – | – |
| CC1=C(CNC(=O)C(N)CC(C)C)C2=C(C)C3(CC3)[C@@](C)(O)C(=O)C2=C1 (stereo partly shown) [compound 276] | > 61000 | > 6100 | – |
| COc1ccc(NS(=O)(=O)OCC2=C(C)C=C3C(=O)[C@](C)(O)C4(CC4)C(C)=C32)cc1 [compound 269] | – | > 7000 | – |
| CC1=C(COc2ccccc2)C2=C(C)C3(CC3)[C@@](C)(O)C(=O)C2=C1 [compound 199] | > 93000 | > 9300 | – |
| COC(=O)C[S+]([O-])CC1=C(C)C=C2C(=O)[C@](C)(O)C3(CC3)C(C)=C21 (stereo partly shown) [compound 263] | 124000 ± 18000 | – | – |
| CC1=C(CCCNC(=O)OCC2=C(C(=O)O)N3C(=O)[C@H](NC(=O)Cc4cccs4)[C@@H]3S(=O)(=O)C2)C2=C(C)C3(CC3)[C@@](C)(O)C(=O)C2=C1 [compound 274] | > 46000 | > 4500 | – |
| CC1=C(CCCNC(=O)C(F)(F)F)C2=C(C)C3(CC3)[C@@](C)(O)C(=O)C2=C1 [compound 268] | – | > 8000 | – |
| CONC(=O)NCC1=C(C)C=C2C(=O)[C@](C)(O)C3(CC3)C(C)=C21 [compound 278] | > 94000 | > 9400 | – |
| CC1=C(CCCNC(=O)[C@@H]2CCCN2)C2=C(C)C3(CC3)[C@@](C)(O)C(=O)C2=C1 [compound 202] | > 62000 | > 6200 | – |
| CC1=C(CNO)C2=C(C)C3(CC3)[C@@](C)(O)C(=O)C2=C1 [compound 394] | – | – | MDR Activity [4]: Yes; Cytotoxicity [4]: Yes |
| CON(CC1=C(C)C=C2C(=O)[C@](C)(O)C3(CC3)C(C)=C21)C(=O)CN [compound 267] | > 90000 | – | – |
| CC1=C2C(=CC(C)(C)C2OC(=O)c2ccc(S(=O)(=O)F)cc2)C(=O)C(C)(O)C12CC2 (stereo not shown) [compound 222] | 9300 | – | – |
| CC1=C(COCCBr)C2=C(C)C3(CC3)[C@@](C)(O)C(=O)C2=C1 [compound 020] | 25000 ± 3100 | – | IC50 [2, 6]: 530 ± 140 nM |
| CC1=C(CN)C2=C(C)C3(CC3)[C@@](C)(O)C(=O)C2=C1 [compound 270] | > 84000 | – | – |
| CC1=C2C(=C[C@@](C)(COS(C)(=O)=O)[C@@H]2O)C(=O)[C@](C)(O)C12CC2 [analog 362, ((2'S,3'R,6'R)-3',6'-dihydroxy-2',4',6'-trimethyl-7'-oxo-2',3',6',7'-tetrahydrospiro[cyclopropane-1,5'-inden]-2'-yl)methyl methanesulfonate] | – | – | Cytotoxicity [4]: cytotoxic |
| CC1=C(CCCOC(=O)C(N)CC(C)C)C2=C(C)C3(CC3)[C@@](C)(O)C(=O)C2=C1 (stereo partly shown) [compound 176] | – | – | MDR Activity [4]: Yes; Cytotoxicity [4]: Yes |
| COc1cc2cc(c1Cl)N(C)C(=O)C[C@H](OC(=O)[C@H](C)N(C)C(=O)CCS)[C@]1(C)O[C@H]1[C@H](C)[C@@H]1C[C@@](O)(NC(=O)O1)[C@H](OC)/C=C/C=C(\C)C2 [DM1, reference compound] | – | – | Cytotoxicity [4]: not cytotoxic and No |
| CC1=C(CNS(C)(=O)=O)C2=C(C)C3(CC3)[C@@](C)(O)C(=O)C2=C1 [compound 271] | > 93000 | > 9300 | – |
| CC(=O)ON(C(C)=O)C(=O)OCCCC1=C(C)C=C2C(=O)[C@](C)(O)C3(CC3)C(C)=C21 [compound 240] | > 24000 | – | – |
| CC1=C(CCCOC(=O)[C@@H]2CCCN2)C2=C(C)C3(CC3)[C@@](C)(O)C(=O)C2=C1 [compound 196] | – | > 9200 | – |
| CC1=C(CCCOC(=O)[C@@H]2CCCN2C(=O)[C@H](CO)NC(=O)[C@@H](N)CO)C2=C(C)C3(CC3)[C@@](C)(O)C(=O)C2=C1 [compound 209] | > 90000 | – | – |
